Earlier results in US20080188528A1, “Modulators of C3a receptor and methods of use thereof” (priority 2006, published 2008).

Details: cited from earlier work

**Q.** With NC(N)=NCCC[C@H](NC(=O)COCC(c1ccccc1)c1ccccc1)C(=O)O [SB-290157] as the compound, how does the airway inflammation (asthma model) read?
**A.** reduction of airway inflammation

**Q.** And the neutrophil recruitment (in vivo)?
**A.** inhibition of neutrophil recruitment

**Q.** And the paw edema (in vivo)?
**A.** decreased paw edema
